Biological target: T1, human CXCR6 (Homo sapiens, UniProt O00574)
T1 construct: expressed in transfected cells
Assay: Radioligand Binding Assay (125I-CXCL16 displacement)
Settings: L1.2 cells stably transfected with human CXCR6 cDNA, 0.1 nM 125I-CXCL16, 4° C., three-hour incubation; read-out: Potency (IC50)
In short: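 Displacement of 0.1 nM 125I-CXCL16 from human CXCR6 stably expressed in L1.2 cells was measured after a 3 h, 4 °C incubation in HBSS with 0.1% BSA. Filter-bound cpm were counted, and IC50 values came from a 3-parameter nonlinear fit.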

T1 sequence (O00574 whole entry): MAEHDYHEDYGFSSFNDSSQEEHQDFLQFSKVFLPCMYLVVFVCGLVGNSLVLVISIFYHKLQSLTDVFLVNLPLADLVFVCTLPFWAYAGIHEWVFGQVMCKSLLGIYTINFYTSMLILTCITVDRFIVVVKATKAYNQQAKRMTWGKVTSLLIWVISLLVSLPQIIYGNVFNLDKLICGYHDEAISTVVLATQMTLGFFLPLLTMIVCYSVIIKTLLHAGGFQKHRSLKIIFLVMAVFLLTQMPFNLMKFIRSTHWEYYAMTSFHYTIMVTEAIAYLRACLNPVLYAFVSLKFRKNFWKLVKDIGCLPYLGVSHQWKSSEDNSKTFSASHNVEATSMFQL

Cc1cc(NC(=O)c2cccc(C(F)(F)F)c2)ccc1S(=O)(=O)Nc1cccc(C(F)(F)F)c1 [Example 1.443]
IC50: 2000 to 20000 nM

CC(C)[C@H](O)C(=O)Nc1ccc(S(=O)(=O)Nc2cccc(OC(F)(F)F)c2)c(C#N)c1 [Example 1.165]
IC50: 200 to 750 nM

Cn1nccc1C(=O)Nc1ccc(S(=O)(=O)Nc2cccc(C(F)(F)F)c2)c(Br)c1 [Example 1.351]
IC50: 200 to 750 nM

Cc1cc(NC(=O)[C@@H](CO)C(C)C)ccc1S(=O)(=O)Nc1cccc(OC(F)(F)F)c1 [Example 1.174]
IC50: ≤ 200 nM

Cc1cc(NC(=O)CN(C)C)ccc1S(=O)(=O)Nc1cccc(C(F)(F)F)c1 [Example 1.553]
IC50: 2000 to 20000 nM

CC(C)[C@H](CO)C(=O)Nc1ccc(S(=O)(=O)Nc2cccc(OC(F)(F)F)c2)c(Cl)c1 [Example 1.085]
IC50: ≤ 200 nM

CCOc1cc(NC(=O)[C@@H](NC(=O)OC(C)(C)C)c2ccccc2)ccc1S(=O)(=O)Nc1cccc(OC(F)(F)F)c1 [Example 1.429]
IC50: 200 to 750 nM

CCOc1cc(NC(=O)C(CO)CC2CC2)ccc1S(=O)(=O)Nc1cccc(OC(F)(F)F)c1 (stereo not shown) [Example 1.014]
IC50: ≤ 200 nM

CCOc1cc(NC(=O)C2CCN(C(=O)OC(C)(C)C)CC2)ccc1S(=O)(=O)Nc1cccc(OC(F)(F)F)c1 [Example 1.433]
IC50: 2000 to 20000 nM

CCOc1cc(NC(=O)[C@@H](NC(C)=O)c2ccccc2)ccc1S(=O)(=O)Nc1cccc(OC(F)(F)F)c1 [Example 1.313]
IC50: ≤ 200 nM

COc1cc(NC(=O)c2ccnn2C)ccc1S(=O)(=O)Nc1cccc(N(C)C)c1 [Example 1.337]
IC50: 750 to 2000 nM

CCOc1cc(NC(=O)C(O)c2ccc(Br)cc2)ccc1S(=O)(=O)Nc1cccc(OC(F)(F)F)c1 (stereo not shown) [Example 1.564]
IC50: 200 to 750 nM

C=CC(=O)Nc1ccc(S(=O)(=O)Nc2cccc(OC(F)(F)F)c2)c(OCC)c1 [Example 1.583]
IC50: 200 to 750 nM

CCOc1cc(NC(=O)C2CCOCC2(C)C)ccc1S(=O)(=O)Nc1cccc(OC(F)(F)F)c1 (stereo not shown) [Example 1.215]
IC50: 200 to 750 nM

Cc1cc(NC(=O)c2cocn2)ccc1S(=O)(=O)Nc1cccc(C(F)(F)F)c1 [Example 1.301]
IC50: 2000 to 20000 nM

CCOc1cc(NC(=O)C(O)[C@@H](C)CC)ccc1S(=O)(=O)Nc1cccc(C(F)(F)F)c1 (stereo partly shown) [Example 1.390]
IC50: ≤ 200 nM

CCOc1cc(NC(=O)[C@@H](CO)C(C)C)ccc1S(=O)(=O)Nc1cccc(C(C)(F)F)c1 [Example 1.181]
IC50: ≤ 200 nM

CCOc1cc(NC(=O)C(O)C2CCCC2)ccc1S(=O)(=O)Nc1cccc(OC(F)(F)F)c1 (stereo not shown) [Example 1.177]
IC50: ≤ 200 nM

Cc1cc(NC(=O)C2CCCCC2)ccc1S(=O)(=O)Nc1cccc(C(F)(F)F)c1 [Example 1.575]
IC50: 750 to 2000 nM

COc1cc(NC(=O)c2ccnn2C)ccc1S(=O)(=O)Nc1cc(C(F)(F)F)cc(C(F)(F)F)c1 [Example 1.112]
IC50: 2000 to 20000 nM

CCOc1cc(NC(=O)[C@@H](CO)c2ccccc2)ccc1S(=O)(=O)Nc1ccc(C(F)(F)F)cc1 [Example 1.295]
IC50: 750 to 2000 nM

CCOc1cc(NC(=O)[C@@H](N)CC(C)C)ccc1S(=O)(=O)Nc1cccc(OC(F)(F)F)c1 [Example 1.109]
IC50: ≤ 200 nM

COc1cc(NC(=O)CC2CCNC2)ccc1S(=O)(=O)Nc1cccc(C(F)(F)F)c1 (stereo not shown) [Example 1.214]
IC50: 2000 to 20000 nM

CCOc1cc(NS(=O)(=O)c2ccc(NC(=O)[C@@H](O)C(C)C)cc2OCC)ccc1Cl [Example 1.210]
IC50: 200 to 750 nM

CCOc1cc(NC(=O)[C@@H](CO)C(C)C)ccc1S(=O)(=O)Nc1cccc(C(F)(F)F)c1 [Example 1.062]
IC50: ≤ 200 nM

CCOc1cc(NC(=O)c2ccn(C)c(=O)c2)ccc1S(=O)(=O)Nc1cccc(OC(F)(F)F)c1 [Example 1.110]
IC50: ≤ 200 nM

CCOc1cc(NC(=O)[C@@H](O)C(C)C)ccc1S(=O)(=O)Nc1ccc2c(c1)OC(F)(F)O2 [Example 1.340]
IC50: 750 to 2000 nM

CCOc1cc(NC(=O)CC(C)(O)CC)ccc1S(=O)(=O)Nc1cccc(OC(F)(F)F)c1 (stereo not shown) [Example 1.052]
IC50: 200 to 750 nM

CCOc1cc(NC(=O)[C@@H](O)C(C)C)ccc1S(=O)(=O)Nc1cccc(C(C)C)c1 [Example 1.263]
IC50: ≤ 200 nM

CCOc1cc(NC(=O)CC(O)c2cccnc2)ccc1S(=O)(=O)Nc1cccc(OC(F)(F)F)c1 (stereo not shown) [Example 1.236]
IC50: 750 to 2000 nM

CCOc1cc(NC(=O)C(O)c2ccc(O)cc2)ccc1S(=O)(=O)Nc1cccc(OC(F)(F)F)c1 (stereo not shown) [Example 1.527]
IC50: 200 to 750 nM

CCOc1cc(NC(=O)C(CO)c2ccc(F)cc2)ccc1S(=O)(=O)Nc1cccc(OC(F)(F)F)c1 (stereo not shown) [Example 1.204]
IC50: ≤ 200 nM

CCOc1cc(NC(=O)[C@@H]2C[C@@H](O)[C@@H](O)C2)ccc1S(=O)(=O)Nc1cccc(OC(F)(F)F)c1 [Example 1.280]
IC50: 2000 to 20000 nM

COc1cc(NC(=O)[C@@H](CO)C(C)C)ccc1S(=O)(=O)Nc1ccc(C)c(C(F)(F)F)c1 [Example 1.495]
IC50: 200 to 750 nM

Cc1ccc(C(=O)Nc2ccc(S(=O)(=O)Nc3cccc(C(F)(F)F)c3)c(C)c2)cc1 [Example 1.251]
IC50: 750 to 2000 nM

CCOc1cc(NC(=O)[C@@H](CO)C2CC2)ccc1S(=O)(=O)Nc1cccc(OC(F)(F)F)c1 [Example 1.053]
IC50: ≤ 200 nM

CCOc1cc(NC(=O)[C@@H](CO)C(C)C)ccc1S(=O)(=O)Nc1cccc(OC(F)(F)F)c1C [Example 1.101]
IC50: 2000 to 20000 nM

CCOc1cc(NC(=O)C2CCS(=O)(=O)CC2)ccc1S(=O)(=O)Nc1cccc(OC(F)(F)F)c1 [Example 1.470]
IC50: 2000 to 20000 nM

CCOc1cc(NC(=O)[C@@H](CO)C(C)C)ccc1S(=O)(=O)Nc1ccc(Cl)c(C(F)(F)F)c1 [Example 1.523]
IC50: ≤ 200 nM

O=C(Nc1ccc(S(=O)(=O)Nc2cccc(OC(F)(F)F)c2)c(OC(F)(F)F)c1)[C@@H](CO)c1ccccc1 [Example 1.361]
IC50: ≤ 200 nM

CCOc1cc(NC(=O)C(CCO)CC(C)C)ccc1S(=O)(=O)Nc1cccc(OC(F)(F)F)c1 (stereo not shown) [Example 1.383]
IC50: ≤ 200 nM

CCOc1cc(NC(=O)C(C(=O)O)C(C)C)ccc1S(=O)(=O)Nc1cccc(OC(F)(F)F)c1 (stereo not shown) [Example 1.217]
IC50: ≤ 200 nM

CCOc1cc(NC(=O)C(C)c2ccccc2)ccc1S(=O)(=O)Nc1cccc(OC(F)(F)F)c1 (stereo not shown) [Example 1.064]
IC50: ≤ 200 nM

CCOc1cc(NC(=O)[C@@H](CO)C(C)C)ccc1S(=O)(=O)Nc1ccc(OC)c(C(F)(F)F)c1 [Example 1.005]
IC50: ≤ 200 nM

COc1cc(NC(C)=O)ccc1S(=O)(=O)Nc1cccc(C(F)(F)F)c1 [Example 1.374]
IC50: 2000 to 20000 nM

Cc1cc(NC(=O)c2ccn(C)c(=O)c2)ccc1S(=O)(=O)Nc1cccc(OC(F)(F)F)c1 [Example 1.100]
IC50: 200 to 750 nM

CCOc1cc(NC(=O)C2(O)CC2)ccc1S(=O)(=O)Nc1cccc(OC(F)(F)F)c1 [Example 1.318]
IC50: 750 to 2000 nM

CCOc1cc(NC(=O)[C@@H](NS(C)(=O)=O)C(C)C)ccc1S(=O)(=O)Nc1cccc(OC(F)(F)F)c1 [Example 1.324]
IC50: ≤ 200 nM

Cc1cc(NC(=O)c2ccc(Cl)cc2)ccc1S(=O)(=O)Nc1cccc(C(F)(F)F)c1 [Example 1.407]
IC50: 750 to 2000 nM

Cc1cc(NC(=O)c2cccnc2C)ccc1S(=O)(=O)Nc1cccc(C(F)(F)F)c1 [Example 1.306]
IC50: 750 to 2000 nM

COc1cc(NC(=O)C2CCC(O)CC2)ccc1S(=O)(=O)Nc1cccc(C(F)(F)F)c1 (stereo not shown) [Example 1.140]
IC50: 2000 to 20000 nM

CCOc1cc(NC(=O)[C@H]2CCOC[C@@H]2COC)ccc1S(=O)(=O)Nc1cccc(OC(F)(F)F)c1 (racemic) [Example 1.237]
IC50: 200 to 750 nM

From patent US20230339851A1, “CXCR6 SULFONAMIDE COMPOUNDS” (CHEMOCENTRYX, INC., priority 2022, published 2023)
